Measured values published in US20160263109A1, “P13K INHIBITOR FOR TREATMENT OF RESPIRATORY DISEASE” (GLAXOSMITHKLINE INTELLECTUAL PROPERTY DEVELOPMENT LIMITED, priority 2013, published 2016).
Structures can show the parent of a compound that is named as a salt.

Columns and labels:
[1] = system: lung gene expression; assay: Affymetrix GeneChip lung gene expression in S. Pneumoniae-infected mice; assay type: in vivo; settings: lungs of S. Pneumoniae-infected mice at various timepoints after infection; genes with minimum 1.5 fold-change, p<0.05; n=6
Method: (§1) Germ-free C57BL/6 male and female mice aged 10-12 weeks were intranasally administered with 0.2% Tween-80/saline vehicle or 0.2 mg/kg micronized 6-(1H-indol-4-yl)-4-(5-{[4-(1-methylethyl)-1-piperazinyl]methyl}-1,3-oxazol-2-yl)-1H-indazole hydrochloride in the same vehicle. Compound dosing was carried out twice daily for eleven days under anaesthesia using 3% isoflurane for induction and 2% isoflurane for maintenance. At the start of day two, and one hour after administering 6-(1H-indol-4-yl)-4-(5-{[4-(1-methylethyl)-1-piperazinyl]methyl}-1,3-oxazol-2-yl)-1H-indazole hydrochloride or vehicle, mice were anaesthetized with isoflurane as above and infected intranasally with 1×10^7 CFU of S. pneumoniae strain TIGR4. S. Pneumoniae was obtained and prepared as described previously (see, for example, Infect. Immun. December 2011; 79(12): 4965-4976) and given in an inoculum of 50 μl PBS per mouse. Mice were monitored three times daily and assessed using a defined mortality-endpoint, where mice displaying three or more of the limiting clinical signs stated in Home Office Project Licence PPL 70/7661 were culled.
Each band corresponds to a single probe and intensity signifies fold change, as indicated in the legend.

[2] = system: S. pneumoniae strain TIGR4; assay: Streptococcus pneumoniae infection in mice, survival by defined mortality-endpoint; assay type: in vivo; settings: C57BL/6 mice, 0.2 mg/kg intranasal twice daily for eleven days, infected intranasally with 1×10^7 CFU S. pneumoniae TIGR4; n=60; Mantel-Cox **p<0.005
Method: as §1

Structure (SMILES): CC(C)N1CCN(Cc2cnc(-c3cc(-c4cccc5[nH]ccc45)cc4[nH]ncc34)o2)CC1 [6-(1H-indol-4-yl)-4-(5-{[4-(1-methylethyl)-1-piperazinyl]methyl}-1,3-oxazol-2-yl)-1H-indazole hydrochloride]
- lung gene expression compared to vehicle controls [1]: altered lung gene expression
- defined mortality-endpoint (percentage survival) compared to vehicle controls [2]: reduced a defined mortality-endpoint
